The results in this text go back to PubChem BioAssay AID1963825 (Molecular Pharmacology Branch, DTP, NCI, 2024).

“And” between values parts separate entries of the source, which are not always exact repeats. Identical values can stand only once.

A short description of the experiment: Anticancer human tumor 997537-175-T-J1-PDC patient-derived colon adenocarcinoma cell line growth inhibition [POLQ]. Particulars: 997537-175-T-J1-PDC complex spheroid viability, combination with POLQ inhibitors; for viability, T/C: stronger effect = lower value. The method, boiled down:
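Growth inhibition in 3D: complex spheroids (tumor PDC, HUVEC, MSC) treated with POLQ inhibitor combinations; where Cmax unknown, highest tested concentration 10 microM, except SN-38 at 1 microM.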
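Also: luminescence signal used as a surrogate for viable cells; spheroids exposed to drugs for seven days before readout.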

For orientation: viability, T/C means the ratio of treated to control. One may read the IC50 as the midpoint of a concentration-inhibition curve. Turning to `C=CC(=O)N1CCN(c2nc(=O)n(-c3c(C)ccnc3C(C)C)c3nc(-c4c(O)cccc4F)c(F)cc23)C(C)C1` (stereo not drawn), the viability, T/C is 88.3% and 103% and 94.8% (compound 0.0316 µM); 92.3% and 93.2% and 91.2% (compound 0.1 µM); 92.7% and 102% and 101% (compound 0.316 µM); 99.6% and 91.8% and 112% (compound 1 µM); 103% (2×) and 104% (compound 3.16 µM); 101% and 89.6% and 87.3% (compound 10 µM). Also, the IC50 (curve of compound) was > 10 µM.

As for `CC1COCCN1c1cc(C2(S(C)(=N)=O)CC2)nc(-c2ccnc3[nH]ccc23)n1` (stereo not drawn) + Cc1cccc(N(C)C(=O)C2C(O)CCN2c2nc(C)cc(C(F)(F)F)c2C#N)c1, the IC50 runs as follows: (curve of first compound, second compound 0.0316 µM) 9.37 µM; (curve of first compound, second compound 0.1 µM) > 10 µM; (curve of first compound, second compound 0.316 µM) 8.26 µM; (curve of first compound, second compound 1 µM) 7.19 µM; (curve of first compound, second compound 3.16 µM) > 10 µM; (curve of first compound, second compound 10 µM) > 10 µM. Besides, the viability, T/C (second compound 0.0316 µM, first compound 0.0316 µM) is 97.9%; the viability, T/C (second compound 0.0316 µM, first compound 0.1 µM) was 106%; the viability, T/C (second compound 0.0316 µM, first compound 0.316 µM) is 102%; the viability, T/C (second compound 0.0316 µM, first compound 1 µM) was 98.8%; the viability, T/C (second compound 0.0316 µM, first compound 3.16 µM) was 83.6%; the viability, T/C (second compound 0.0316 µM, first compound 10 µM) was 47.6%. The viability, T/C is 97.5% (second compound 0.1 µM, first compound 0.0316 µM); 96.6% (second compound 0.1 µM, first compound 0.1 µM); 101% (second compound 0.1 µM, first compound 0.316 µM); 83.6% (second compound 0.1 µM, first compound 1 µM); 63.5% (second compound 0.1 µM, first compound 3.16 µM); 64.7% (second compound 0.1 µM, first compound 10 µM). In addition, the viability, T/C by setting is: (second compound 0.316 µM, first compound 0.0316 µM) 110%; (second compound 0.316 µM, first compound 0.1 µM) 107%; (second compound 0.316 µM, first compound 0.316 µM) 90.8%; (second compound 0.316 µM, first compound 1 µM) 91.6%; (second compound 0.316 µM, first compound 3.16 µM) 57.9%; (second compound 0.316 µM, first compound 10 µM) 49.1%. Besides, the viability, T/C is 106% (second compound 1 µM, first compound 0.0316 µM); 104% (second compound 1 µM, first compound 0.1 µM); 80.3% (second compound 1 µM, first compound 0.316 µM); 78.9% (second compound 1 µM, first compound 1 µM); 44.7% (second compound 1 µM, first compound 3.16 µM); 52.7% (second compound 1 µM, first compound 10 µM). For the same compound, the viability, T/C reads like this: (second compound 3.16 µM, first compound 0.0316 µM) 111%; (second compound 3.16 µM, first compound 0.1 µM) 109%; (second compound 3.16 µM, first compound 0.316 µM) 98.5%; (second compound 3.16 µM, first compound 1 µM) 87.3%; (second compound 3.16 µM, first compound 3.16 µM) 78.3%; (second compound 3.16 µM, first compound 10 µM) 70.8%. Further, the viability, T/C was 88.3% (second compound 10 µM, first compound 0.0316 µM); 99.8% (second compound 10 µM, first compound 0.1 µM); 86% (second compound 10 µM, first compound 0.316 µM); 92.7% (second compound 10 µM, first compound 1 µM); 68.5% (second compound 10 µM, first compound 3.16 µM); 63.5% (second compound 10 µM, first compound 10 µM).

Turning to `O=c1[nH]cc(F)c(=O)[nH]1`, the viability, T/C was 86.3% and 95% and 102% (compound 0.0316 µM); 99.9% and 91.8% and 89.1% (compound 0.1 µM); 108% and 90% and 106% (compound 0.316 µM); 92.9% and 96.2% and 106% (compound 1 µM); 102% and 92% and 105% (compound 3.16 µM); 83.8% and 76.2% and 81.4% (compound 10 µM). In addition, for the setting “curve of compound”, the IC50 is > 10 µM.

For `COc1cccc2c1C(=O)c1c(O)c3c(c(O)c1C2=O)CC(O)(C(=O)CO)CC3OC1CC(N)C(O)C(C)O1` (stereo not drawn), the viability, T/C runs as follows: (compound 0.0316 µM) 91.6% and 101% and 113%; (compound 0.1 µM) 81.9% and 97% and 103%; (compound 0.316 µM) 87.3% and 68.5% and 110%; (compound 1 µM) 93.9% and 90% and 81.8%; (compound 3.16 µM) 57.7% and 37.8% and 27.6%; (compound 10 µM) 8.92% and 9.36% and 7.86%. The IC50 (curve of compound) was 3.79 µM and 2.41 µM and 1.97 µM.
